# According to patent US5164414A, “Use of N-myristoyl-(S)-phenylalanine for the treatment of diseases involving myristoylation” (Adir Et Compagnie, priority 1990, dated 1992):
# Entries after “also recorded” stand apart in the source; their conditions may differ.
# Key:
# HL 60 cells = assay: Cytotoxicity, colorimetric test (ALLEY et al.), HL 60; assay type: cell-based, human; details: for IC50: Homo sapiens, HL-60, concentration inhibiting 50% of cell growth, 9 concentrations
# Method: (§1) The cytotoxicity of the compounds is assessed using the calorimetric test described by ALLEY et al. (Cancer Res., (1988) 48, 589-601). This automated test is routinely used on 2 cell lines: L 1210 (mouse leukemia) and HL 60 (human promyelocyte). On each of these lines, the cytotoxicity is assessed using 9 concentrations of the compounds. The IC50 is the concentration inhibiting 50% of cell growth.
# [1] = target: T1, N-myristoyltransferase (NMT) (Mus musculus, UniProt O70310); assay: Inhibition of N-myristoyltransferase (NMT) solubilized from L 1210 microsomes, in competition with peptide substrate G8R; assay type: biochemical, murine (L 1210); details: for IC50: NMT from L 1210 microsomes, peptide substrate G8R, 10 min at 37° C.
# T1 construct: The supernatant comprises the whole of the NMT activity present in the L 1210 microsomes; endogenous in cells; host or cells: L 1210 murine leukemia cells; Triton 770-solubilized microsomes (105,000 g supernatant)
# T1 sequence (O70310 1-496): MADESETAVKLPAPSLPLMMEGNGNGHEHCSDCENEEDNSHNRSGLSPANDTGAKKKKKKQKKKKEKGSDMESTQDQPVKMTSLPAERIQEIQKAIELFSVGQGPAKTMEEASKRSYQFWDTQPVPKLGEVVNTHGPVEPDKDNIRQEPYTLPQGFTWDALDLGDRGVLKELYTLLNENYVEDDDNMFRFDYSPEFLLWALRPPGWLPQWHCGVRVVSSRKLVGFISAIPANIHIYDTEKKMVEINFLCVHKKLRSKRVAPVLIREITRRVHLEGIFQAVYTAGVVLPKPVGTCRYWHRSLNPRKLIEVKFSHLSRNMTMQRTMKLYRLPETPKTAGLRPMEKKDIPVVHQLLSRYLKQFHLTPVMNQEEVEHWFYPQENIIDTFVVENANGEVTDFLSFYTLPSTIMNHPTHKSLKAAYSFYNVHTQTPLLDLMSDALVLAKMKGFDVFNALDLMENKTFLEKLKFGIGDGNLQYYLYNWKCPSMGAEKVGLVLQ
# Method: Leukemic cells of murine origin (L 1210) are cultured in 500- to 1000-ml roller bottles in a medium comprising: RPMI 1640 medium (Gibco); 10% fetal calf serum; 50 units/ml of penicillin; 50 μM streptomycin; 2 mM glutamine; and 10 mM HEPES (Gibco). The cells grow with continuous agitation at 37° C. in an atmosphere of 5% CO2 /95% air. The cells are collected and washed. The final pellet, typically containing 2.5×10^11 cells is resuspended in a lysis buffer [50 mM Tris, pH 7.9; 1 mM DTT; 1 mM EDTA; and 250 mM sucrose]. The cells are lysed and homogenized. The microsomes (vesiculated endoplasmic reticulum) are collected by centrifugation at 105,000 g as a pellet.
# NMT is a membrane enzyme. To solubilize this enzyme, this suspension is then diluted to 2/3 in a solubilization buffer [50 mM HEPES, pH 7.5, 1 mM EDTA, 1 mM DTT, 10% glycerol and 3% Triton 770] and maintained for 30 min at 4° C. with stirring. This suspension is then centrifuged again at 105,000 g for 75 min. The material insoluble in the detergent sediments as a pellet. The supernatant comprises the whole of the NMT activity present in the L 1210 microsomes.
# The compounds are then tested on the supernatant in competition with the peptide substrate Gly-Asn-(Ala)4 -(Arg)2 ("G8R") according to the conditions which follow, as described by TOWLER et al. (PNAS, (1987), 84, 2708-2711). Myristoylcoenzyme A is synthesized enzymatically immediately before use by incubation of myristate with ATP, Coenzyme A (lithium salt) and Pseudomonas Acyl-Coa synthetase (20 min at 30° C.). The peptide substrate and the biological source as obtained above are then added. The mixture is incubated for 10 min at 37° C.; the reaction is then stopped with 110 μl of methanol and 10 μl of trichloroacetic acid. The medium is left at 4° C. for 10 min and then centrifuged at 10,000 g for 5 min. An aliquot (30 μl) of the final supernatant is injected into an HPLC system equipped with a μBondapak column (Waters) and developed with a linear gradient as described by Towler et al. (PNAS, (1987), 84, 2708-11). Detection of the acylated peptide is performed using a radioactive line detector (Berthold) by means of the addition of 5 ml/min of scintillation fluid (Zinsser). The acylated peptide is eluted at 85% acetonitrile-TFA/15% H20-TFA.
# The compounds tested as inhibitors are suspended in a 0.1% solution of Triton 770 after a brief sonication in the cold state. 10 μl of the solution of inhibitor are added to the reaction medium. The experimental conditions are identical to those described above. The activity of the compound is evaluated on the basis of the decrease in control activity, incubated under the same conditions but in the presence of the solution of suspension.
# L 1210 cells = assay: Cytotoxicity, colorimetric test (ALLEY et al.), L 1210; assay type: cell-based, mouse; details: for IC50: Mus musculus, L1210, concentration inhibiting 50% of cell growth, 9 concentrations
# Method: as §1
# [2] = compared with N-myristoylglycine
SMILES,IC50 (HL 60 cells) [µM],cytotoxicity on HL 60 cells (in words) (HL 60 cells; [2]),IC50 [1] [mM],inhibition of NMT activity (in words) ([1]; enzyme extracted from L 1210 cells),activity greater than that measured for N-myristoylglycine ([1]; ratio of IC50 versus N-myristoylglycine),IC50 (L 1210 cells) [µM],cytotoxicity on L 1210 cells (in words) (L 1210 cells; [2])
CCCCCCCCCCCCCC(=O)N[C@@H](Cc1ccccc1)C(=O)O [N-myristoyl-(S)-phenylalanine],12.8,markedly greater than that due to N-myristoylglycine; also recorded: markedly greater cytotoxicity than N-myristoylglycine,0.2,strongly inhibits its activity; also recorded: markedly greater inhibition of the activity of this enzyme than the use of compounds described in the prior art,15 -fold,29.5,markedly greater than that due to N-myristoylglycine; also recorded: markedly greater cytotoxicity than N-myristoylglycine
"CCCCCCCCCCCCCC(=O)NCC(=O)O [N-myristoylglycine, reference compound]",20.5,–,3,–,–,48.4,–
